Test results taken from patent publication US8133889B2, “Dihydroindolone compounds, a process for their preparation and pharmaceutical compositions containing them” (Les Laboratoires Servier, priority 2009, dated 2012).

Columns and labels:
[1] = system: A549 (human non-small cell lung carcinoma) cells; assay: Inhibition of the migration of A549 cells: scratch assay; format: cell-based; conditions: at 30 nM; A549 cells exposed 38 hours; 40 ng/ml HGF
Description: Cells from the A549 (human non-small cell lung carcinoma) line are cultured in an incubator at 37° C. in the presence of 5% CO2 in RPMI 1640 medium containing 10% foetal calf serum, 40 ng/ml HGF (hepatocyte growth factor), 2 mM glutamine, 50 units/ml penicillin, 50 μg/ml streptomycin and 10 mM Hepes buffer, pH=7.4. For the migration test, the A549 cells are transferred to 96-well plates (50,000 cells per well) and cultured for 24 hours to obtain cells at confluence. A one-millimetre thick scratch is made in the cell layer, and the cells are exposed to the compounds under test for 38 hours. The cell cultures are then photographed, and filling of the scratch as a result of migration of the cells is assessed.

[2] = system: human glioblastoma tumour U87-MG; assay: Inhibition of growth of the tumour U87-MG grafted subcutaneously in mice; format: in vivo, female Nude BalbC mouse; conditions: oral route; for inhibition of growth: Day 35
Description: The human glioblastoma tumour U87-MG was grafted subcutaneously into the female Nude BalbC mouse in an amount of 10^6 cells. The tumours were then randomised into groups of eight mice once the tumour volume had reached 200 mm^3. Daily treatment (6.25, 12.5, 25 and 50 mg/kg) was administered by the oral route (vehicle=water) over a period of 17 days except for the weekends. The tumour volumes were measured twice a week using a sliding calliper. The inhibition of growth found after administration of the compounds according to the invention is statistically significant (two-factor ANOVA, with measurements repeated over time, followed by a DUNETT's test) at all doses tested between Day 21 and Day 35 (date for ethical sacrifice of the mice in the control group in conformity with ethical rules). […] Regression of the order of 70% is observed at a dose of 50 mg/kg.

SMILES | melting point | also measured
Cl.O=C1Nc2ccc(CN3CCOC3=O)cc2C1=Cc1ccc(CN2CCOCC2)[nH]1 | 195 °C | –
CC(=C1C(=O)Nc2ccc(CN3C(=O)COC3=O)cc21)c1cc(CN2CCOCC2)c[nH]1.Cl | 220 °C | –
CCN(CC)Cc1c[nH]c(C=C2C(=O)Nc3ccc(CN4CCOC4=O)cc32)c1.Cl | 192 °C | –
Cl.O=C1Nc2ccc(CN3CCOC3=O)cc2C1=Cc1c[nH]cc1CN1CCOCC1 | 210 °C | –
Cc1[nH]c(C=C2C(=O)Nc3ccc(CN4CCOC4=O)cc32)c(C)c1CN1C[C@H]2CCC[C@H]2C1.Cl | 204 °C | –
CC(=C1C(=O)Nc2ccc(CN3CCOC3=O)cc21)c1cc(CN2CCOCC2)c[nH]1.Cl | 212 °C | –
Cl.O=C1Nc2ccc(CN3C(=O)CSC3=O)cc2C1=Cc1cc(CN2CCOCC2)c[nH]1 [Example 1, 3-[(3-{[4-(4-Morpholinylmethyl)-1H-pyrrol-2-yl]methylene}-2-oxo-2,3-dihydro-1H-indol-5-yl)methyl]-1,3-thiazolidine-2,4-dione hydrochloride] | – | inhibition of migration (filling of the scratch) [1]: total inhibition; inhibition of growth ([2]; 6.25 mg/kg daily): 102%; inhibition of growth ([2]; 12.5 mg/kg daily): 84%; inhibition of growth ([2]; 25 mg/kg daily): 98%; regression ([2]; 50 mg/kg daily): ~70%
CC(=C1C(=O)Nc2ccc(CN3C(=O)CSC3=O)cc21)c1cc(CN2CCOCC2)c[nH]1.Cl | 225 °C | –
O=C1Nc2ccc(CN3CCOC3=O)cc2C1=Cc1[nH]ccc1CN1CCOCC1 [Example 21, 3-(3-Morpholin-4-ylmethyl-1H-pyrrol-2-ylmethylene)-5-(2-oxo-oxazolidin-3-ylmethyl)-1,3-dihydro-indol-2-one] | 192 °C | –

Continued, in another order:

melting point | SMILES | also measured
198 °C | Cl.O=C1Nc2ccc(CN3C(=O)[C@H]4C[C@H]4C3=O)cc2C1=Cc1cc(CN2CCCCC2)c[nH]1 | –
289 °C (dec.) | Cl.O=C1Nc2ccc(CCN3C(=O)CSC3=O)cc2C1=Cc1cc(CN2CCOCC2)c[nH]1 | –
204 °C | Cl.O=C1Nc2ccc(CN3CCOC3=O)cc2C1=Cc1cc(CN2CCCC2)c[nH]1 | –
191 °C | CC1(C)OC(=O)N(Cc2ccc3c(c2)C(=Cc2cc(CN4CCOCC4)c[nH]2)C(=O)N3)C1=O.Cl | –
216 °C | Cl.O=C1Nc2ccc(CN3C(=O)COC3=O)cc2C1=Cc1cc(CN2CCOCC2)c[nH]1 | –
256 °C | Cl.O=C1Nc2ccc(CN3CCOC3=O)cc2C1=Cc1cc(CN2CCCCC2)c[nH]1 | –
179 °C | Cl.O=C1Nc2ccc(CN3CCOC3=O)cc2C1=Cc1cc(CN2C[C@H]3C[C@H]3C2)c[nH]1 | –
212 °C | Cl.O=C1Nc2ccc(CN3C(=O)CCC3=O)cc2C1=Cc1cc(CN2CCOCC2)c[nH]1 | –
244 °C | Cl.O=C1Nc2ccc(CN3CCSC3=O)cc2C1=Cc1cc(CN2CCOCC2)c[nH]1 | –
